Experiments:
Target C = assay: HiBiT protein abundance assay, Target C (K562 HiBiT knock-in); type: cell-based, human; conditions: HiBiT knock-in K562 cells, 24 hours, top dose 10 μM
Method in brief: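 K562 HiBiT knock-in cells (10000/well) were treated 24 h at 37° C with a 10-point 3-fold dilution series (top 10 μM final, ≤0.25% DMSO). HiBiT luminescence was read after lytic LgBiT detection. Percent response used unmodified K562 and DMSO-treated knock-in controls, and IC50 came from a four-parameter fit at 50% of untreated.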

SMN2 mRNA = assay: RT-qPCR splicing assay, SMN2 mRNA; type: cell-based, human; conditions: Homo sapiens, canonical junction qPCR panel, Table 4; read-out: SMN2 IC50 (decrease in CJ mRNA levels)
Method in brief: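 Both isoforms, CJ and AJ, read by qPCR from crude lysates of treated A673 or K562 cells; 24 h, 37 °C, maximum 10 uM. Normalization: housekeeper ΔCt, then DMSO ΔΔCt.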

MYB = assay: HiBiT protein abundance assay, MYB (K562 HiBiT knock-in); type: cell-based, human; conditions: HiBiT knock-in K562 cells, 24 hours, top dose 10 μM
Method in brief: (§1)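 K562 HiBiT knock-in, 24 h, 37 °C, top 10 μM final, 3-fold ×10, DMSO ≤0.25%. Lytic HiBiT luminescence; PC = parental K562, NC = DMSO; 4PL IC50.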

K562 cells = assay: Cell Titer Glo 2.0 cell viability (toxicity) assay, K562; conditions: 500 cells/well, 72 hours
HTT = assay: HiBiT protein abundance assay, HTT (K562 HiBiT knock-in); type: cell-based, human; conditions: HiBiT knock-in K562 cells, 24 hours, top dose 10 μM
Method in brief: as §1

Row | IC50 (Target C) [µM] | IC50 (SMN2 mRNA) [µM] | IC50 (MYB) [µM] | IC50 (HTT) [µM] | Structure (SMILES) | Effect of Exemplary Compounds on Cell Viability, K562 (K562 cells)
1 | 0.1 to 1 | < 0.1 | 0.1 to 1 | 0.1 to 1 | CN[C@@H]1CCN(c2ccc3nc(-c4cn5cc(C)nc5c(C)c4O)ncc3n2)C1 (single isomer, unassigned) [Compound 504] | B (B represents 100-1000 nM)
2 | 0.1 to 1 | < 0.1 | < 0.1 | 0.1 to 1 | CNC(=O)c1nc(-c2cc3cn(C)nc3c(C)c2O)nc2ccc(N3CCN[C@@H](C)C3)cc12 (single isomer, unassigned) [Compound 512] | A (A represents <100 nM)
3 | 0.1 to 1 | < 0.1 | < 0.1 | < 0.1 | CN[C@@H]1CCN(c2ccc3nc(-c4cc5cn(C)nc5c(C)c4O)ncc3c2)C1 (single isomer, unassigned) [Compound 521] | A (A represents <100 nM)
4 | 0.1 to 1 | < 0.1 | < 0.1 | < 0.1 | CNC(=O)c1nc(-c2cc3cn(C)nc3c(C)c2O)nc2ccc(N3C[C@@H](C)N[C@H](C)C3)cc12 (single isomer, unassigned) [Compound 653] | A (A represents <100 nM)
5 | 0.1 to 1 | < 0.1 | < 0.1 | 0.1 to 1 | Cc1c(O)c(-c2ncc3cc(N4C[C@@H](C)N[C@H](C)C4)ccc3n2)cc2cn(C)nc12 (single isomer, unassigned) [Compound 661] | B (B represents 100-1000 nM)
6 | 0.1 to 1 | < 0.1 | < 0.1 | 0.1 to 1 | CNC(=O)c1nc(-c2cc3cn(C)nc3c(F)c2O)nc2ccc(N3C[C@@H](C)N[C@H](C)C3)cc12 (single isomer, unassigned) [Compound 668] | A (A represents <100 nM)
7 | 0.1 to 1 | < 0.1 | < 0.1 | 0.1 to 1 | CNC(=O)c1nc(-c2cc3cn(C)nc3c(F)c2O)nc2ccc(N3C[C@H](C)N[C@@H](C)C3)cc12 (single isomer, unassigned) [Compound 669] | A (A represents <100 nM)
8 | 0.1 to 1 | < 0.1 | < 0.1 | 0.1 to 1 | CNC(=O)c1nc(-c2cc3cn(C)nc3cc2O)nc2ccc(N3C[C@H](C)N[C@@H](C)C3)cc12 (single isomer, unassigned) [Compound 676] | A (A represents <100 nM)
9 | 0.1 to 1 | < 0.1 | < 0.1 | 0.1 to 1 | CNC(=O)c1nc(-c2cc3cn(C)nc3cc2O)nc2ccc(N3C[C@@H](C)N[C@H](C)C3)cc12 (single isomer, unassigned) [Compound 677] | B (B represents 100-1000 nM)
10 | 0.1 to 1 |  | < 0.1 | 0.1 to 1 | Cc1cn2cc(-c3ccc4cc(N5C[C@H](C)N[C@@H](C)C5)cc(F)c4n3)cc(F)c2n1 (single isomer, unassigned) [Compound 705, 2,2,2-trifluoroacetate] | A (A represents <100 nM)
11 | < 0.1 | < 0.1 | < 0.1 | < 0.1 | Cn1cc2cc(-c3ncc4nc(C5CCNCC5)ccc4n3)c(O)c(F)c2n1 [Compound 155] | A (A represents <100 nM)
12 | 1 to 10 | < 0.1 | 0.1 to 1 | 0.1 to 1 | Cc1nc2cc(O)c(-c3ccc4nc(N5CCNC(C(C)(C)C)C5)ccc4n3)cc2o1 (stereo not drawn) [Compound 492] | C (C represents 1000-9999 nM)
13 | < 0.1 | < 0.1 | < 0.1 | < 0.1 | Cc1nc2cc(O)c(-c3ccc4nc(N5CC[C@@H](N(C)C(C)(C)C)C5)ccc4n3)cc2o1 [Compound 493] | A (A represents <100 nM)
14 | 1 to 10 | 0.1 to 1 | 1 to 10 | 1 to 10 | Cc1c(O)c(-c2nc(C(=O)N(C)C)c3cc(N4CCNCC4)ccc3n2)cc2cn(C)nc12 [Compound 502, 2-(6-hydroxy-2,7-dimethylindazol-5-yl)-N,N-dimethyl-6-(piperazin-1-yl)quinazoline-4-carboxamide] | C (C represents 1000-9999 nM)
15 | 0.1 to 1 | < 0.1 | < 0.1 | < 0.1 | CCNC(=O)c1nc(-c2cc3cn(C)nc3c(C)c2O)nc2ccc(N3CCNCC3)cc12 [Compound 503, N-ethyl-2-(6-hydroxy-2,7-dimethylindazol-5-yl)-6-(piperazin-1-yl)quinazoline-4-carboxamide] | A (A represents <100 nM)
16 | 0.1 to 1 | < 0.1 | < 0.1 | 0.1 to 1 | CNC(=O)c1nc(-c2cc(F)c3nc(C)cn3c2)nc2ccc(N3CCNCC3)cc12 [Compound 505, 2-{8-fluoro-2-methylimidazo[1,2-a]pyridin-6-yl}-N-methyl-6-(piperazin-1-yl) quinazoline-4-carboxamide] | B (B represents 100-1000 nM)
17 | 0.1 to 1 | < 0.1 | < 0.1 | 0.1 to 1 | CNC(=O)c1nc(-c2cc3cn(C)nc3c(F)c2O)nc2ccc(N3CCNCC3)cc12 [Compound 506, 2-(7-fluoro-6-hydroxy-2-methylindazol-5-yl)-N-methyl-6-(piperazin-1-yl)quinazoline-4-carboxamide] | 
18 | 1 to 10 | < 0.1 | < 0.1 | 0.1 to 1 | CNC(=O)c1nc(-c2cc3cn(C)nc3c(C)c2O)nc2ccc(N3CCC(N(C)C)CC3)cc12 [Compound 507, 6-[4-(dimethylamino)piperidin-1-yl]-2-(6-hydroxy-2,7-dimethylindazol-5-yl)-N-methylquinazoline-4-carboxamide] | A (A represents <100 nM)
19 | > 10 | 0.1 to 1 | 1 to 10 | > 10 | CNc1nc(-c2cc3cn(C)nc3c(C)c2O)nc2ccc(N3CCNCC3)cc12 [Compound 508, 2,7-dimethyl-5-[4-(methylamino)-6-(piperazin-1-yl)quinazolin-2-yl]indazol-6-ol] | 
20 | > 10 | 0.1 to 1 | 1 to 10 | > 10 | Cc1c(O)c(-c2nc(N(C)C)c3cc(N4CCNCC4)ccc3n2)cc2cn(C)nc12 [Compound 509, 5-[4-(dimethylamino)-6-(piperazin-1-yl)quinazolin-2-yl]-2,7-dimethylindazol-6-ol] | 
21 | 0.1 to 1 | < 0.1 | < 0.1 | < 0.1 | CNC(=O)c1nc(-c2cc3cn(C)nc3c(C)c2O)nc2ccc(N3CCC(NC)C3)cc12 (stereo not drawn) [Compound 510, 2-(6-hydroxy-2,7-dimethylindazol-5-yl)-N-methyl-6-[3-(methylamino)pyrrolidin-1-yl]quinazoline-4-carboxamide] | A (A represents <100 nM)
22 | 1 to 10 | < 0.1 | < 0.1 | 0.1 to 1 | CNC(=O)c1nc(-c2cc3cn(C)nc3c(C)c2O)nc2ccc(N3C[C@@H](C)N[C@@H](C)C3)cc12 [Compound 511, 6-[(3R,5S)-3,5-dimethylpiperazin-1-yl]-2-(6-hydroxy-2,7-dimethylindazol-5-yl)-N-methylquinazoline-4-carboxamide] | A (A represents <100 nM)

Row | Structure (SMILES) | IC50 (Target C) [µM] | IC50 (SMN2 mRNA) [µM] | IC50 (MYB) [µM] | IC50 (HTT) [µM] | Effect of Exemplary Compounds on Cell Viability, K562 (K562 cells)
23 | Cn1cc2cc(-c3ccc4nc([C@@H]5CCNC6(CC6)C5)ccc4n3)c(O)cc2n1 (single isomer, unassigned) [Compound 495] | < 0.1 | < 0.1 | < 0.1 | < 0.1 | B (B represents 100-1000 nM)
24 | Cn1cc2cc(-c3ccc4nc([C@H]5CCNC6(CC6)C5)ccc4n3)c(O)cc2n1 (single isomer, unassigned) [Compound 496] | < 0.1 | < 0.1 | < 0.1 | < 0.1 | B (B represents 100-1000 nM)
25 | Cc1nc2cc(O)c(-c3ccc4nc([C@H]5CCNC6(CC6)C5)ccc4n3)cc2o1 (single isomer, unassigned) [Compound 497] | < 0.1 | < 0.1 | < 0.1 | < 0.1 | A (A represents <100 nM)
26 | Cc1nc2cc(O)c(-c3ccc4nc([C@@H]5CCNC6(CC6)C5)ccc4n3)cc2o1 (single isomer, unassigned) [Compound 498] | < 0.1 | < 0.1 | < 0.1 | < 0.1 | B (B represents 100-1000 nM)

— patent publication US20250092065A1, “2-(INDAZOL-5-YL)-6-(PIPERIDIN-4-YL)-1,7-NAPHTHYRIDINE DERIVATIVES AND RELATED COMPOUNDS AS MODULATORS FOR SPLICING NUCLEIC ACIDS AND FOR THE TREATMENT OF PROLIFERATIVE DISEASES” (REMIX THERAPEUTICS INC., priority 2022, published 2025)
